Key:
Assay in all cases: relative viability (nuclei count vs DMSO), 5 days (fraction); higher = more cells survive
IPA-3 + Decitabine = compound: C1=CC=C2C(=C1)C=CC(=C2SSC3=C(C=CC4=CC=CC=C43)O)O [IPA-3] + Nc1ncn([C@H]2C[C@H](O)[C@@H](CO)O2)c(=O)n1 [Decitabine] (partner 2 µM)
How it was run: (§1)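 Relative viability was taken as the ratio of nuclei in treated wells to nuclei in vehicle wells. Lung cancer cell lines in 1536-well plates received compounds by pin tool one day after seeding, either one drug alone or a fixed anchor-drug dose plus five library-drug doses (not always all listed) in √10 steps. Nuclei were counted on 4× images after 5 days of treatment, and values are medians of duplicate plates.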

RAF265 + Bortezomib = compound: Cn1c(Nc2ccc(C(F)(F)F)cc2)nc2cc(Oc3ccnc(-c4ncc(C(F)(F)F)[nH]4)c3)ccc21 [RAF265] + CC(C)C[C@H](NC(=O)[C@H](Cc1ccccc1)NC(=O)c1cnccn1)B(O)O [Bortezomib] (partner 0.002 µM)
How it was run: as §1

RAF265 + Trametinib = compound: Cn1c(Nc2ccc(C(F)(F)F)cc2)nc2cc(Oc3ccnc(-c4ncc(C(F)(F)F)[nH]4)c3)ccc21 [RAF265] + CC(=O)Nc1cccc(-n2c(=O)n(C3CC3)c(=O)c3c(Nc4ccc(I)cc4F)n(C)c(=O)c(C)c32)c1 [Trametinib] (partner 0.02 µM)
How it was run: as §1

Doramapimod + Dasatinib = compound: Cc1ccc(-n2nc(C(C)(C)C)cc2NC(=O)Nc2ccc(OCCN3CCOCC3)c3ccccc23)cc1 [Doramapimod] + Cc1nc(Nc2ncc(C(=O)Nc3c(C)cccc3Cl)s2)cc(N2CCN(CCO)CC2)n1 [Dasatinib] (partner 0.075 µM)
How it was run: as §1

| Cell Line | relative viability (IPA-3 + Decitabine; first compound 0.2 µM) | relative viability (IPA-3 + Decitabine; first compound 0.6325 µM) | relative viability (IPA-3 + Decitabine; first compound 2 µM) | relative viability (IPA-3 + Decitabine; first compound 6.325 µM) | relative viability (IPA-3 + Decitabine; first compound 20 µM) | relative viability (RAF265 + Bortezomib; first compound 0.01 µM) | relative viability (RAF265 + Bortezomib; first compound 0.03162 µM) | relative viability (RAF265 + Bortezomib; first compound 0.1 µM) | relative viability (RAF265 + Bortezomib; first compound 0.3162 µM) | relative viability (RAF265 + Bortezomib; first compound 1 µM) | relative viability (RAF265 + Trametinib; first compound 0.01 µM) | relative viability (RAF265 + Trametinib; first compound 0.03162 µM) | relative viability (RAF265 + Trametinib; first compound 0.1 µM) | relative viability (RAF265 + Trametinib; first compound 0.3162 µM) | relative viability (RAF265 + Trametinib; first compound 1 µM) | relative viability (Doramapimod + Dasatinib; first compound 0.02 µM) | relative viability (Doramapimod + Dasatinib; first compound 0.06325 µM) | relative viability (Doramapimod + Dasatinib; first compound 0.2 µM) | relative viability (Doramapimod + Dasatinib; first compound 0.6325 µM) | relative viability (Doramapimod + Dasatinib; first compound 2 µM) |
| --- | --- | --- | --- | --- | --- | --- | --- | --- | --- | --- | --- | --- | --- | --- | --- | --- | --- | --- | --- | --- |
| NCI-H1975 | 0.472 | 0.368 | 0.357 | 0.398 | 0.356 | 0.46 | 0.342 | 0.334 | 0.322 | 0.229 | 0.422 | 0.286 | 0.22 | 0.173 | 0.191 | 0.284 | 0.365 | 0.353 | 0.374 | 0.357 |
| NCI-H3122 | 0.517 | 0.467 | 0.362 | 0.459 | 0.474 | 0.955 | 1.02 | 1.07 | 1.04 | 0.922 | 0.26 | 0.203 | 0.21 | 0.208 | 0.173 | 0.762 | 0.779 | 0.78 | 0.936 | 0.727 |
| NCI-H2347 | 0.629 | 0.611 | 0.657 | 0.622 | 0.603 | 0.801 | 1.03 | 1.09 | 0.809 | 0.573 | 0.266 | 0.292 | 0.283 | 0.22 | 0.227 | 0.351 |  | 0.291 | 0.319 | 0.282 |
| HCC-78 | 0.74 | 0.665 | 0.618 | 0.548 | 0.649 | 0.535 | 0.506 | 0.52 | 0.956 | 0.423 | 0.79 | 0.913 | 0.728 | 0.705 | 0.537 | 0.359 | 0.431 | 0.364 | 0.382 | 0.304 |
| COR-L23 | 0.553 | 0.469 | 0.41 | 0.419 | 0.256 | 1.05 | 0.87 | 0.964 | 0.706 | 0.511 | 0.684 | 0.444 | 0.331 | 0.247 | 0.207 | 0.527 | 0.554 | 0.5 | 0.545 | 0.513 |
| NCI-H1993 | 0.611 | 0.576 | 0.643 | 0.547 | 0.615 | 1.06 | 0.941 | 1.09 | 1.01 | 0.795 | 0.585 | 0.619 | 0.542 | 0.384 | 0.435 | 0.885 | 0.638 | 0.505 | 0.705 | 0.559 |
| NCI-H2405 | 0.797 | 0.737 | 0.723 | 0.721 | 0.746 | 0.985 | 0.898 | 0.995 | 0.975 | 0.422 | 0.605 | 0.639 | 0.539 | 0.474 | 0.383 | 0.222 | 0.219 | 0.2 | 0.403 | 0.188 |
| NCI-H2126 | 0.556 | 0.624 | 0.595 | 0.587 | 0.622 | 1.05 | 1.1 | 1.13 | 1.14 | 0.926 | 0.635 | 0.526 | 0.539 | 0.506 | 0.342 | 0.59 | 0.661 | 0.577 | 0.544 | 0.497 |
| NCI-H1734 | 0.59 | 0.457 | 0.469 | 0.44 | 0.436 | 0.937 | 0.724 | 0.696 | 0.7 | 0.469 | 0.722 | 0.526 | 0.564 | 0.535 | 0.276 | 0.443 | 0.405 | 0.426 | 0.509 | 0.39 |
| A-427 | 0.571 | 0.576 | 0.547 | 0.544 | 0.63 | 0.98 | 0.867 | 1 | 1.1 | 0.494 | 0.905 | 0.507 | 0.592 | 0.403 | 0.198 | 0.728 | 0.768 | 0.733 |  | 0.672 |
| RERF-LC-KJ | 0.896 | 0.639 | 0.701 | 0.704 | 0.689 | 1.17 | 1.16 | 1.07 | 1.03 | 0.761 | 0.877 | 0.764 | 0.867 | 0.638 | 0.546 | 0.88 | 0.709 | 0.729 | 0.769 | 0.768 |
| NCI-H727 | 0.783 | 0.916 | 0.71 | 0.867 | 0.997 | 0.855 | 0.783 | 0.908 | 0.796 | 0.456 | 0.403 | 0.371 | 0.392 | 0.334 | 0.317 | 0.352 | 0.341 | 0.283 | 0.353 | 0.388 |
| LCLC-97TM1 | 0.242 | 0.216 | 0.211 | 0.196 | 0.235 | 0.253 | 0.671 | 0.492 | 0.181 | 0.238 | 0.225 | 0.151 | 0.149 | 0.16 | 0.0901 | 0.837 | 0.87 | 0.768 | 0.699 | 0.591 |
| BEN | 0.612 | 0.824 | 0.758 | 0.712 | 0.665 | 0.993 | 0.878 | 0.777 | 0.85 | 0.547 | 1.12 | 1.25 | 1.05 | 1.17 | 0.908 | 0.34 | 0.349 | 0.317 | 0.345 | 0.273 |
| NCI-H2023 | 0.233 | 0.225 | 0.209 | 0.216 | 0.2 | 1.07 | 1.08 | 1.07 | 0.786 | 0.794 | 0.608 | 0.508 | 0.533 | 0.55 | 0.266 | 0.601 | 0.521 | 0.533 | 0.645 | 0.512 |
| LC-2-ad | 0.788 | 0.822 | 0.82 | 0.84 | 0.788 | 0.959 | 0.998 | 0.927 | 0.668 | 0.452 | 0.931 | 0.958 | 1.01 | 0.839 | 0.432 | 0.464 | 0.514 | 0.638 | 0.561 | 0.391 |

From the supplement of paper PMC10307832
